What was measured:
Renca-Her2/neu tumor = assay: Survival of Renca-Her2/neu tumor bearing mice after irradiation and T-body transfer (Example 10); type: in vivo, Balb/c mice
Experimental: Adoptive transfer experiments. Mice were injected with […] Renca-Her2/neu cells iv on day 1. All mice (including the control group) were irradiated on day 7 with 200 or 400 rads (137Cs source). Prior to transfer, all T cells were activated with Con-A 1 μg/ml for 48 hours, and then cultured for 3-5 more days with 350 u/ml IL-2. Either 30×10^6 or 108 T cells were transferred in a split dose on days 8 and 10. In some experiments, FTY720 was injected ip (0.3 mg/kg) on days 8-18. Donor cells were either from wildtype mice (Balb/c or C57BL/6) or from N29 CAR transgenic mice (Balb/c or C57BL/6 backgrounds). In some cases, T-bodies from wild type mice (Balb/c or C57Bl) were transduced with the CAR.
To investigate the potential of allogeneic adoptive cell therapy, the BALB/c derived mouse renal cell carcinoma (Renca) cell line expressing the human Her2/neu was used. Following intravenous inoculation of the tumor, experimental metastases mainly developed in the lungs, yet, as was reported in similar systems (ref. 62, 63) extra-pulmonary metastases also developed. […] Adoptive transfer of T cells redirected with a Her2/neu-specific chimeric antigen receptor (‘T-bodies’) was performed on days 8 and 10 (FIG. 21). The CAR is composed of a scFv fragment derived from the Her2/Neu-specific N29 antibody fused to a CD28 co-activation moiety and FcRγ signaling sequences (ref. 8). […] T-bodies were obtained from transgenic (Tg) mice of BALB/c (Balb-N29) or C57BL/6 (Black-N29) background, or by the transduction of wild type T cells with a retrovector harboring the Her2/neu-specific CAR. Transduced T cells were activated as part of their transduction, while naïve transgenic (Tg) T cells were also activated to facilitate comparison with transduced T cells.

[1] = FACS analysis of blood and spleen lymphocytes after transfer of allogeneic T-bodies with or without FTY720; type: in vivo, Balb/c mice
Experimental: Prior to splenocyte staining, RBC were lysed using ACK buffer. Lymphocytes (1×10^6) were incubated with the appropriate antibodies in staining buffer (5% BSA, 0.05% sodium azide in phosphate-buffered saline (PBS)) for 30 minutes on ice. Alternatively, Annexin V staining buffer was used as indicated. CFSE (Carboxyfluorescein succinimidyl ester) labeling was performed according to the manufacturer's instructions (Molecular Probes. Eugene, Oreg.). Cells were analyzed by flow cytometry (LSRII, Becton Dickinson. Mountain View. Calif.) and FacsDiva software (Becton Dickinson).
This enhanced persistence of allogeneic T-bodies can explain the increased survival of tumor bearing mice treated with allogeneic T-bodies and FTY720.

[2] = tested on: Renca-erbb2 pulmonary metastases
Experimental: After determining safe regimens for adoptive transfer, the inventors tested the efficacy of tumor rejection by CR redirected T cells. The inventors used the Renca-erbb2, renal cancer cell line, stably transfected with erbB2 (HER2) which was injected intravenously into Balb/c mice to generate experimental pulmonary metastases. As effectors, the inventors used splenocytes from transgenic mice expressing a HER2 specific chimeric receptor (based on the N29 antibody derived scFv, FIGS. 7A-B) under the CD2 promoter (which is expressed in T and NK cells [8]). The HER2-specific transgenic mice were kept on two backgrounds: C57Bl and Balb/c (named C57Bl-N29 and Balb-N29 respectively). Wild type Balb/c mice were injected with the Renca-erbb2 on day 1, irradiated on day 7, and HER2 specific T-bodies were injected on day 8 (and also on day 10 and 12 in some cases).
The inventors therefore compared the efficacy of allogeneic (C57Bl-N29) to syngeneic (Balb-N29) T-bodies, and to ensure that allogeneic cells mediate a specific antitumor response (and not just an allogeneic response), they also tested the effect of activated wild type C57Bl cells. Previous experiments in the inventors' lab have established that the minimal regimen which provides significant therapeutic benefit (boosting median survival to 90 days) using syngeneic Balb-N29 is irradiation with 200 rad and transfer of 3 doses of 10 million cells each (abbreviated as 200/30 regimen) complemented with low dose IL-2 (1000 u) twice daily. The purpose was to test if one can provide therapeutic benefit in this model using allogeneic C57Bl-N29 cells. The inventors used the initial regimen as a starting point with one important difference: instead of using naïve transgenic cells, the cells were pre-activated before transfer for 48 hours with concanavalin A. The reason for the change was to simulate a more clinically relevant situation in which lymphocytes will need to be activated in order to facilitate retroviral transduction with the chimeric receptor.

S1P1 = S1P1 (Homo sapiens, UniProt P21453); details: high affinity for S1P1; cited from earlier work
S1P3 [3] = biological target: T1, S1P3 (Homo sapiens, UniProt Q99500); details: read-out: ED50 (the source's name); cited from earlier work
[4] = in vivo; cited from earlier work
S1P2 = S1P2 (Homo sapiens, UniProt O95136); details: at concentrations up to 10 μM; cited from earlier work
S1P3 [5] = biological target: T1, S1P3; details: at concentrations up to 10 μM; cited from earlier work
S1P4 = biological target: T2, S1P4 (Homo sapiens, UniProt O95977); details: at concentrations up to 10 μM; cited from earlier work
T2 sequence (O95977 1-384): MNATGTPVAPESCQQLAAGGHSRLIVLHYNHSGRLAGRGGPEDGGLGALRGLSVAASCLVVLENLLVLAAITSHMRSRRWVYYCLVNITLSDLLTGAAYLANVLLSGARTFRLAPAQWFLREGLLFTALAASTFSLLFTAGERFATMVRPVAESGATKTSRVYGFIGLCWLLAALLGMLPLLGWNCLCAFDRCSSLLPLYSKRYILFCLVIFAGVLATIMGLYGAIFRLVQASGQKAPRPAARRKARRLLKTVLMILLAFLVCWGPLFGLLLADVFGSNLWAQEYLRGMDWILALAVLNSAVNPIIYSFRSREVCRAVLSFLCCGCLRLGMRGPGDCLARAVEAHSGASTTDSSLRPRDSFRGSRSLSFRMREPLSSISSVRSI

S1P5 receptors = S1P5 receptors (Homo sapiens, UniProt Q9H228); details: at concentrations up to 10 μM; cited from earlier work
[6] = 400 rads and 10^8 allo-T-bodies with FTY720

T1 sequence (Q99500 whole entry, species assumed): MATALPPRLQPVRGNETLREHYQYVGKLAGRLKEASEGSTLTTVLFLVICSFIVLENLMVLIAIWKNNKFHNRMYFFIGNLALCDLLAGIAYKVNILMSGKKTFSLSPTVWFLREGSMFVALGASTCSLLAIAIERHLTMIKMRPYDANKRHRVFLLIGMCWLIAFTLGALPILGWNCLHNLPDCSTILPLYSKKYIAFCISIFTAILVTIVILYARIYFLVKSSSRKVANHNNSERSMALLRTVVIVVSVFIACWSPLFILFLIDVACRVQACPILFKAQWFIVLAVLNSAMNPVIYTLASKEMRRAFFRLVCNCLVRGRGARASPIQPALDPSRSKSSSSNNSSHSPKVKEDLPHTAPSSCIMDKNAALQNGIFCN
Sequence of S1P1 (P21453 whole entry): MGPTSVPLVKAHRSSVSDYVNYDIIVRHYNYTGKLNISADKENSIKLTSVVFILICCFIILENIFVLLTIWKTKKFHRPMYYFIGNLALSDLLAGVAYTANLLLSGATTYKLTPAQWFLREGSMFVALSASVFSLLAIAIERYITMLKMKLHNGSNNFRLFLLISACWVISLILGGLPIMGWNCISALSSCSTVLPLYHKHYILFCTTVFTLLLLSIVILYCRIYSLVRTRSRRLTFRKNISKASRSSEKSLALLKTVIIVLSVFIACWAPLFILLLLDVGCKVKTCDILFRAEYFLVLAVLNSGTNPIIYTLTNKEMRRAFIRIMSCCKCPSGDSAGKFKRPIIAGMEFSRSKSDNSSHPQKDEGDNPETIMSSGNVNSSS
Sequence of S1P5 receptors (Q9H228 whole entry): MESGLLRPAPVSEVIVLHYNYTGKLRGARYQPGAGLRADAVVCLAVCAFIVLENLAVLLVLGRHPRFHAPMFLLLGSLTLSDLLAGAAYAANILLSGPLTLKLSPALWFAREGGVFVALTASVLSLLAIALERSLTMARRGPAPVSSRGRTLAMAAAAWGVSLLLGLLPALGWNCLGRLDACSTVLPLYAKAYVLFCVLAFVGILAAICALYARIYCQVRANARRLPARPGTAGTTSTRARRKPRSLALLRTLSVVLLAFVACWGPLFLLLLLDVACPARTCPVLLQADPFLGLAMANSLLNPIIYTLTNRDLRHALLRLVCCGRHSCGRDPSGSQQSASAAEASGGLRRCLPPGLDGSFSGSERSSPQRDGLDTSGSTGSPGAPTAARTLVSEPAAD
Sequence of S1P2 (O95136 whole entry, species assumed): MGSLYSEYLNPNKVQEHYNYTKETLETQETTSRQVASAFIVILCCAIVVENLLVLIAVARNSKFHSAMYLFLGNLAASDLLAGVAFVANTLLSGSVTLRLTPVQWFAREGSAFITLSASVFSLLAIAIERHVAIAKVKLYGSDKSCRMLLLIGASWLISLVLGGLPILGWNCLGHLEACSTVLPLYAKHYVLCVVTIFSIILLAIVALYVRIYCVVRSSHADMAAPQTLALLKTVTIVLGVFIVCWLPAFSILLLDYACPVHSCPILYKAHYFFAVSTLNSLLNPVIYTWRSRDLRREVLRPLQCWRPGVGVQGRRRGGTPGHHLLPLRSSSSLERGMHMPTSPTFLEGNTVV

Compound: CCCCCCCCc1ccc(CCC(N)(CO)CO)cc1.Cl [FTY720, 2-amino-2-[2-(4-octylphenyl)ethyl]propane-1,3-diol]
- effect of FTY720 alone on survival of tumor bearing mice (Renca-Her2/neu tumor; 0.3 mg/kg i.p for the first 10 days after irradiation, no T-bodies): not to affect the survival of tumor bearing mice
- long term survival (>350 days) (Renca-Her2/neu tumor; [6]): most of the remaining mice survived long term
- mice died of GvHD (Renca-Her2/neu tumor; [6]): 16%
- mice surviving long term (>350 days) (Renca-Her2/neu tumor; 400 rads and 30x10^6 allogeneic T-bodies with FTY720 0.3 mg/kg ip 10 days): 58%
- median survival (Renca-Her2/neu tumor; 400 rads and 30x10^6 syngeneic T-bodies with FTY720 0.3 mg/kg ip 10 days): 90 days
- lymphocyte egression to the blood ([1]; 4 days after transfer of allogeneic T-bodies, CD3 staining of blood): inhibited lymphocyte egression to the blood
- allo-T-bodies in the spleen ([1]; day 7 after transfer, anti-H2Kb staining, with vs without FTY720): higher numbers of allo-T-bodies detected in the spleen on day 7
- long term survivors ([2]; 200/100 regimen, C57Bl-N29 with FTY720): 80%
- surviving after day 250 ([2]; 400/30 regimen, C57Bl-N29 with FTY720): ≥ 50%
- median survival ([2]; 400/30 regimen, C57Bl-N29 with FTY720 0.3 mg/kg ip daily days 8-18): not reached
- GVHD mortality (mice died) ([2]; 400/30 regimen, activated wild type C57Bl cells with FTY720 0.3 mg/kg ip daily days 8-18): 2/6
- tumor bearing mice survived long term ([2]; temporary FTY720 treatment added to allogeneic cells (FIG. 18)): 50-80%

Compound: NC(CO)(CCc1ccc(Sc2cccc(Oc3ccccc3)c2)cc1Cl)COP(=O)(O)O (stereo not shown) [KRP-203 phosphate, 2-ammonio-4-(2-chloro-4-(3-phenoxyphenylthio)phenyl)-2-(hydroxymethyl)butyl hydrogen phosphate]
- ED50 (S1P1): in the nM range
- EC50 (S1P3 [3]): > 1000 nM
- reduction of incidence of bradycardia compared to FTY720 [4]: 10 fold

Compound: FC(F)(F)c1cccc(-c2noc(-c3cc(-c4ccccc4)c(C(F)(F)F)s3)n2)c1 [SEW2871, 5-[4-Phenyl-5-(trifluoromethyl)thiophen-2-yl]-3-[3-(trifluoromethyl)phenyl]1,2,4-oxadiazole]
- receptor activation (S1P2): does not activate
- receptor activation (S1P3 [5]): does not activate
- receptor activation (S1P4): does not activate
- receptor activation (S1P5 receptors): does not activate
